Laboratory results: patent publication US7638535B2, “4-(aminomethyl)-piperidine benzamides as 5HT4-antagonists” (Janssen Pharmaceutica N.V., priority 2003, dated 2009)

Target: T1, h5-HT4b (Homo sapiens, UniProt Q13639)
T1 construct: expressed in transfected cells; host or cells: HEK 293 (clone 9), membrane preparation
Assay: 5HT4 antagonism: [3H]GR113808 binding to membranes of h5-HT4b-HEK 293 clone 9 cells
Settings: displacement of [3H]GR113808 0.1 nM, h5-HT4b-HEK 293 membranes, 30 min at 25° C.; read-out: pIC50 (5HT4 antagonistic data) (converted)
Outline: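 Membranes from h5-HT4b-HEK 293 clone 9 cells were incubated with [3H]GR113808 (0.1 nM as added) in 50 mM HEPES-NaOH pH 7.4 for 30 min at 25 °C. Non-specific binding was defined with a 5-HT4 agonist. Bound radioligand was separated by filtration over PEI-soaked GF/B filters.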

T1 sequence (Q13639 whole entry): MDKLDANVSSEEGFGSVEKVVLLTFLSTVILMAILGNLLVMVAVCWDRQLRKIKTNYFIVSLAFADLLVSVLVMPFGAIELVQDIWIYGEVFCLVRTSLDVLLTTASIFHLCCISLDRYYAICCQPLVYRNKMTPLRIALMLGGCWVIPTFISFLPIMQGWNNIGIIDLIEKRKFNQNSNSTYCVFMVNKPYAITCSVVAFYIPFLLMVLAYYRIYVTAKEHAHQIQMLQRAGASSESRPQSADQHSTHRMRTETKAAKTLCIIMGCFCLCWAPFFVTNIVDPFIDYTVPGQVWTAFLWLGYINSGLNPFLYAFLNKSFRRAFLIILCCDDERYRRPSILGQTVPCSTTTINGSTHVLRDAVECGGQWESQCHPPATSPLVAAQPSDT

Row | SMILES | IC50
1 | Cc1cc2c(c(C(=O)NC[C@@H]3CCN(CCCCO)C[C@H]3O)c1)OCCCO2 [compound 225] | 0.759 nM
2 | CCCCN1CC[C@@H](CNC(=O)c2cc(C)cc3c2OCCCO3)[C@H](OC)C1 [compound 222] | 1.32 nM
3 | Cc1cc2c(c(C(=O)NC[C@@H]3CCN(CCOc4ccc(S(N)(=O)=O)cc4)C[C@H]3O)c1)OCCCO2 [compound 198] | 1.2 nM
4 | CNc1cc2c(c(C(=O)NC[C@@H]3CCN(CCCC(C)=O)C[C@H]3O)c1)OCCCO2 [compound 77] | 69.2 nM
5 | CCCCNc1cc2c(c(C(=O)NC[C@@H]3CCN(CCCC)C[C@H]3O)c1)OCCCO2 [compound 143] | 61.7 nM
6 | Nc1cc(C(=O)NC[C@@H]2CCN(CCCOC3CCCCC3)C[C@H]2O)c2c(c1Cl)OCCO2 [compound 31] | 3.31 nM
7 | CC(=O)CCCN1CC[C@@H](CNC(=O)c2cc(N)cc3c2OCCCO3)[C@H](O)C1 [compound 60] | 81.3 nM
8 | N#CCCCCN1CC[C@@H](CNC(=O)c2cc(N)c(Br)c3c2OCCO3)[C@H](O)C1 [compound 138] | 81.3 nM
9 | N#CCCCN1CC[C@@H](CNC(=O)c2cc(N)c(Br)c3c2OCCCO3)[C@H](O)C1 [compound 145] | 63.1 nM
10 | Cc1cc2c(c(C(=O)NC[C@@H]3CCN(CCCOc4ccc(S(N)(=O)=O)cc4)C[C@H]3O)c1)OCCCO2 [compound 196] | 0.427 nM
11 | Nc1cc(C(=O)NC[C@@H]2CCN(CCCOC3CCCCC3)C[C@H]2O)c2c(c1Cl)OCCCO2 [compound 65] | 3.55 nM
12 | Cc1cc2c(c(C(=O)NC[C@@H]3CCNC[C@H]3O)c1)OCCCO2 [compound 5] | 64.6 nM

Tested on: not listed separately
Assay: Metabolic stability: % metabolism after 60 minutes incubation with active liver microsomes
Format: in vitro ADME
Settings: compound 5 μM, microsomes 1 mg/ml, NADPH-generating system, 60 minutes at 37 degrees Celsius
Description: Sub-cellular tissue preparations were made according to Gorrod et al. (Xenobiotica 5:453-462, 1975) by centrifugal separation after mechanical homogenization of tissue. Liver tissue was rinsed in ice-cold 0.1 M Tris-HCl (pH 7.4) buffer to wash excess blood. Tissue was then blotted dry, weighed and chopped coarsely using surgical scissors. The tissue pieces were homogenized in 3 volumes of ice-cold 0.1 M phosphate buffer (pH 7.4).
Tissue homogenates were centrifuged at 9000×g for 20 minutes at 4° C. The resulting supernatant was stored at −80° C. and is designated ‘S9’.
The S9 fraction can be further centrifuged at 100.000×g for 60 minutes (4° C.). The resulting supernatant was carefully aspirated, aliquoted and designated ‘cytosol’. The pellet was re-suspended in 0.1 M phosphate buffer (pH 7.4) in a final volume of 1 ml per 0.5 g original tissue weight and designated ‘microsomes’.
All sub-cellular fractions were aliquoted, immediately frozen in liquid nitrogen and stored at −80° C. until use.
For the samples to be tested, the incubation mixture contained PBS (0.1M), compound (5 μM), microsomes (1 mg/ml) and a NADPH-generating system (0.8 mM glucose-6-phosphate, 0.8 mM magnesium chloride and 0.8 Units of glucose-6-phosphate dehydrogenase). Control samples contained the same material but the microsomes were replaced by heat inactivated (10 minutes at 95 degrees Celsius) microsomes. Recovery of the compounds in the control samples was always 100%.
The mixtures were preincubated for 5 minutes at 37 degrees Celsius. The reaction was started at time point zero (t=0) by addition of 0.8 mM NADP and the samples were incubated for 60 minutes (t=60). The reaction was terminated by the addition of 2 volumes of DMSO. Then the samples were centrifuged for 10 minutes at 900×g and the supernatants were stored at room temperature for no longer as 24 hours before analysis. All incubations were performed in duplo. Analysis of the supernatants was performed with LC-MS analysis. Elution of the samples was performed on a Xterra MS C18 (50×4.6 mm, 5 μm, Waters, US). An Alliance 2790 (Supplier: Waters, US) HPLC system was used. Elution was with buffer A (25 mM ammoniumacetate (pH 5.2) in H2O/acetonitrile (95/5)), solvent B being acetonitrile and solvent C methanol at a flow rate of 2.4 ml/min. The gradient employed was increasing the organic phase concentration from 0% over 50% B and 50% C in 5 min up to 100% B in 1 minute in a linear fashion and organic phase concentration was kept stationary for an additional 1.5 minutes. Total injection volume of the samples was 25 μl.
A Quatro triple quadrupole mass spectrometer fitted with and ESP source was used as detector. The source and the desolvation temperature were set at 120 and 350° C. respectively and nitrogen was used as nebuliser and drying gas. Data were acquired in positive scan mode (single ion reaction). Cone voltage was set at 10 V and the dwell time was 1 second.
Metabolic stability was expressed as % metabolism of the compound after 60 minutes (equation given as example) of incubation in the presence of active microsomes (E(act))

Row | SMILES | % metabolised compound (compounds of present invention)
13 | Cc1cc2c(c(C(=O)NC[C@@H]3CCN(CCCCO)C[C@H]3O)c1)OCCCO2 [compound 225] | 14%

Same assay, conditions: compound 5 μM, microsomes 1 mg/ml, NADPH-generating system, 60 minutes at 37 degrees Celsius; compound numbers of WO-00/37461

Row | SMILES | % metabolised compound (comparative structures of WO-00/37461)
14 | O=C(NC[C@@H]1CCN(CCOCCO)C[C@H]1O)c1cc(Cl)cc2c1OCCCO2 [WO-00/37461 Co. No. 128, reference compound] | 26%
15 | COCCCN1CC[C@@H](CNC(=O)c2cc(Cl)cc3c2OCCCO3)[C@H](O)C1 [WO-00/37461 Co. No. 120, reference compound] | 25%
16 | CCCCN1CC[C@@H](CNC(=O)c2cc(Cl)cc3c2OCCCO3)[C@H](O)C1 [WO-00/37461 Co. No. 119, reference compound] | 68%
17 | COCCCN1CC[C@@H](CNC(=O)c2cc(Cl)cc3c2OCCO3)[C@H](O)C1 [WO-00/37461 Co. No. 67, reference compound] | 30%
18 | O=C(NC[C@@H]1CCN(CCCCO)C[C@H]1O)c1cc(Cl)cc2c1OCCO2 [WO-00/37461 Co. No. 68, reference compound] | 10%
19 | N#CCCCN1CC[C@@H](CNC(=O)c2cc(Cl)cc3c2OCCO3)[C@H](O)C1 [WO-00/37461 Co. No. 74, reference compound] | 50.5%
20 | O=C(NC[C@@H]1CCN(CCCCO)C[C@H]1O)c1cc(Cl)cc2c1OCCCO2 [WO-00/37461 Co. No. 160, reference compound] | 23%
21 | O=C(NC[C@@H]1CCN(CCCO)C[C@H]1O)c1cc(Cl)cc2c1OCCCO2 [WO-00/37461 Co. No. 144, reference compound] | 11%
22 | O=C(NC[C@@H]1CCN(CC2CCCO2)C[C@H]1O)c1cc(Cl)cc2c1OCCCO2 (stereo partly shown) [WO-00/37461 Co. No. 122, reference compound] | 79%
23 | CC(=O)CCCN1CC[C@@H](CNC(=O)c2cc(Cl)cc3c2OCCCO3)[C@H](O)C1 [WO-00/37461 Co. No. 121, reference compound] | 30%
24 | CC1(CCCN2CC[C@@H](CNC(=O)c3cc(Cl)cc4c3OCCCO4)[C@H](O)C2)OCCO1 [WO-00/37461 Co. No. 124, reference compound] | 49.5%
25 | O=C(NC[C@@H]1CCN(CCC2OCCO2)C[C@H]1O)c1cc(Cl)cc2c1OCCCO2 [WO-00/37461 Co. No. 143, reference compound] | 63%
